Values quoted from earlier work as cited in US10550245B2, “Alternative methods to control crosslinking in high impact polystyrene” (Fina Technology, Inc., priority 2015, dated 2020).
Read-outs that look alike come from different tables or passages of the source.

## CCCCCCCCSc1nc(Nc2cc(C(C)(C)C)c(O)c(C(C)(C)C)c2)nc(SCCCCCCCC)n1 [BNX ® 565, 2,6-di-tert-butyl-4-(4,6-bis(octylthio)-1,3,5-triazin-2-ylamino)phenol]
Table 2
  Solubility (wt. %), Acetone: 20 wt. %
  Solubility (wt. %), Benzene: 43 wt. %
  Solubility (wt. %), Chloroform: 39 wt. %
  Solubility (wt. %), Ethyl Acetate: 46 wt. %
  Solubility (wt. %), Hexane: 6 wt. %
  Solubility (wt. %), Methanol: 1.4 wt. %
  Solubility (wt. %), Water: <0.01 wt. %

## CC(C)(C)c1cc(CCC(=O)OCC(COC(=O)CCc2cc(C(C)(C)C)c(O)c(C(C)(C)C)c2)(COC(=O)CCc2cc(C(C)(C)C)c(O)c(C(C)(C)C)c2)COC(=O)CCc2cc(C(C)(C)C)c(O)c(C(C)(C)C)c2)cc(C(C)(C)C)c1O [BNX ® 1010, tetrakis[methylene-3(3′,5′-di-tert-butyl-4-hydroxyphenyl)propionate]methane]
10 g/100 ml Toluene, 25° C.
  Solubility (10 g/100 ml Toluene): Clear (25° C.)
At 25° C., Table 5B
  Solubility, Acetone: 47%
  Solubility, Benzene: 56%
  Solubility, Chloroform: 71%
  Solubility, Ethanol: 1.5%
  Solubility, Ethyl Acetate: 46%
  Solubility, Hexane: 0.3%
  Solubility, Methanol: 1%
  Solubility, Methylene Chloride: 63%
  Solubility, Toluene: 60%
  Solubility, Water: <0.01% ^

## CC(C)(C)c1cc(CCC(=O)NCCCCCCNC(=O)CCc2cc(C(C)(C)C)c(O)c(C(C)(C)C)c2)cc(C(C)(C)C)c1O [BNX ® 1098]
At 25° C.
  Solubility, 80% Caprolactam + 20% water: 3 g/100 ml solvent
  Solubility, 95% Caprolactam + 5% water: >20 g/100 ml solvent
  Solubility, Acetone: 2 g/100 ml solvent
  Solubility, Benzene: 0.01 g/100 ml solvent
  Solubility, Caprolactam: >20 g/100 ml solvent
  Solubility, Chloroform: 6 g/100 ml solvent
  Solubility, Ethyl Acetate: 1 g/100 ml solvent
  Solubility, Hexane: 0.01 g/100 ml solvent
  Solubility, Methanol: 6 g/100 ml solvent
  Solubility, Water: 0.01 g/100 ml solvent
